Assay results reported in patent US20130059879A1, “Small Molecule Inhibitors of PFKFB3 and Glycolytic Flux and Their Methods of Use as Anti-Cancer Therapeutics” (UNIVERSITY OF LOUISVILLE RESEARCH FOUNDATION, INC., priority 2010, published 2013).
pIC50: −log10 of the molar value. Converted amounts (≈) assume the structure as drawn. Where two headings read alike, the source gives them in different places.

Columns and labels:
Jurkat cells = assay: Inhibition of 14C-2-deoxyglucose uptake; format: cell-based; conditions: Homo sapiens, 3 hours
Method: Inhibition of PFKFB3 results in inhibiting glycolysis. Several feedback or feedforward activation and inhibition mechanisms exist so that, by a feedback mechanism, inhibiting the activity of PFKFB3 may inhibit glucose uptake by cells. An assay was developed to determine if there was inhibition of glucose uptake following exposure to the compounds on the invention. Briefly, Jurkat cells were plated at 1×10^5/mL in RPM′ 1640 supplemented with 10% fetal bovine serum and 50 μg/mL gentamicin sulfate. Cells were immediately treated with vehicle or 5 μmol/L of the compound of the invention for 3 hours and subsequently placed in glucose-free RPMI 1640 for 30 min. ^14C-2-deoxyglucose (0.25 μCi/mL; Perkin Elmer) was added for an additional 60 min and cells were then washed three with ice-cold RPMI 1640 containing no glucose. Cell lysates were collected in 500 μL of 0.1% SDS, and scintillation counts (counts/min) were measured on 400 μL of lysate. Counts were normalized to protein concentration.

HCT-116 = assay: Cancer cell proliferation, Alamar Blue assay, 72 hours; format: cell-based; conditions: Homo sapiens, HCT-116
U937 = assay: as above; format: cell-based; conditions: Homo sapiens, U-937
MDA-MB-231 = assay: as above; format: cell-based; conditions: Homo sapiens
Calu-6 = assay: as above; format: cell-based; conditions: Homo sapiens, Calu-6
Procedure, shortened: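 Calu-6 human cancer cells were seeded at 2×10^5 cells/ml in 96 well plates. The next day, an equal volume of media containing the compounds at twice the intended concentration was added. After 72 hours of exposure, inhibition of proliferation was measured with the Alamar Blue assay, run in triplicate, and IC50 values were determined.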

NCI-H82 = assay: as above; format: cell-based; conditions: Homo sapiens, NCI-H82, read-out: IC50 NCl-H82
Procedure, shortened: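 Proliferation of NCI-H82 cancer cells was assessed with the Alamar Blue assay. Cells were seeded into 96 well plates at 2×10^5 cells/ml, and the following day compounds were added at twice the indicated concentration in an equal volume of media. After 72 hours of exposure, IC50 values were determined from triplicate experiments.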

Jurkat = assay: as above; format: cell-based; conditions: Homo sapiens, Jurkat
Procedure, shortened: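 Jurkat cells were plated at 2×10^5 cells/ml in 96 well plates, and the next day test compounds at twice the indicated concentrations were added in an equal volume of media. After 72 hours of exposure, proliferation or killing of the cancer cells was assessed with the Alamar Blue assay. Experiments were done in triplicate.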

PFKFB3 = molecular target: T1, PFKFB3 (Homo sapiens, UniProt Q16875); assay: Inhibition of recombinant PFKFB3 kinase activity (ADP Glow assay); format: biochemical; conditions: 250 nM analog concentration; read-out: % Inhibition of PFKFB3 Enzymatic Activity
T1 construct: GST
Method: PFKFB3 was prepared by expression in E. coli and purified by GST column and column chromatography. […] The recombinant protein was pure and active as determined by the results of a kinase activity assay commercially available (such as ADP Glow® assay, […]). The same assay was used to determine the inhibition of the protein and the results are shown in Table 5 below (IC50 values or percent inhibition at a fixed concentration). Results confirmed that the compounds of the invention have low nanomolar IC50 values, interacting with PFKFB3 and inhibiting its enzymatic activity.

BX-PC-3 = assay: Cell proliferation, MTT assay, 48 hours; format: cell-based; conditions: Homo sapiens, BXPC-3, BX-PC-3, MTT assay
Method: (§1) The ability of the compounds described herein to kill or inhibit the proliferation of cancer cells was measured using either the MTT assay, or the Alamar Blue assay, or the Cell Titer Glow® assay using 48 or 72 hours exposure. […] The procedures are briefly described below. Cells of the desired tumor cell line were plated at 2×10^5 cells/ml in 96 well plates. Twice the indicated concentrations of the compounds of the invention were added to cells the following day in an equal volume of media. 72 hours later, cells were lysed and subjected to ATP determination using the CellTiter Glo-Luminescent Cell Viability Assay kit (Promega, Madison, Wis.). Experiments were done in triplicate. When using the MTT assay or the Alamar blue assay, the experimental conditions are essentially similar; at the end of the incubation period, 20 microliters of the MTT solution is added per well and the samples are incubated for an additional four hours, rinsed, and the absorbance at 570 nm measured. […] Table 2 lists the IC50 values for the compounds of the invention in several cell lines including Jurkat, Calu-6, NCI-H82, U937, HCT-116, and MDA-MB-231 cancer cell lines.

BT474 = assay: Cell proliferation, MTT assay, 48 hours; format: cell-based; conditions: Homo sapiens, BT-474
Method: as §1

LnCap = assay: Cell proliferation, MTT assay, 48 hours; format: cell-based; conditions: Homo sapiens
Method: as §1

H22 = assay: Cell proliferation, MTT assay, 48 hours; format: cell-based; conditions: Mus musculus
Method: as §1

U87MG = assay: Cell proliferation, MTT assay, 48 hours; format: cell-based; conditions: Homo sapiens, U-87 MG
Method: as §1

MiaPaca = assay: Cell proliferation, MTT assay, 48 hours; format: cell-based; conditions: Homo sapiens, MIA PaCa-2
Method: as §1

SK-BR-3 = assay: Cell proliferation, MTT assay, 48 hours; format: cell-based; conditions: Homo sapiens, SK-BR-3, MTT assay
Method: as §1

A549 = assay: Cell proliferation, MTT assay, 48 hours; format: cell-based; conditions: Homo sapiens
Method: as §1

CT26 = assay: Cell proliferation, MTT assay, 48 hours; format: cell-based; conditions: Mus musculus
Method: as §1

SK-N-SH = assay: Cell proliferation, MTT assay, 48 hours; format: cell-based; conditions: Homo sapiens
Method: as §1

[1] = Microsomal stability in human liver microsomes; format: in vitro ADME
Method: Microsomal stability in vitro in different biologic media (liver microsomes, S9 fraction, hepatocytes) and species is ascertained to evaluate the rate at which a compound undergoes metabolism in the experimental in vitro conditions. Results for some compounds of the invention after a 60 minutes incubation period in human liver microsomes are shown in the Table 6 below. […] Experimental conditions are briefly described here: the stability in human liver microsomes of several compounds was done over […] at 37° C. using pooled mixed gender human liver microsomes. These liver microsomes were prepared at 1.0 mg/ml of microsomal protein in a 100 mM potassium phosphate pH 7.4 buffer with 1 mM NADPH. The media was incubated at 37° C. with the compound in solution in DMSO. The concentration of the compound was followed by LC/MS-MS as a function of time. Samples were assayed at t=0, 15, 30, and 60 minutes. Testosterone was used as a positive control. The same experiment was performed with mouse, rat or dog liver microsomes instead of human liver microsomes.

[2] = Solubility in solvents and excipients, 1 hour at room temperature, HPLC; format: physicochemical; conditions: thermodynamic from solid
Method: Chemical properties of the compounds of the invention were investigated, including the solubility in several solvents and pharmaceutically accepted excipients. […] Briefly, selected compounds of the invention are dissolved in a small volume of the solvents/excipients of interest at room temperature over 1 hour in typically 1 ml and the concentration is measured by HPLC after filtration.

[3] = 60 min incubation, 1.0 mg/ml microsomal protein, 1 mM NADPH, 37° C.
[4] = aqueous with cosolvent or surfactant or cyclodextrin, Cre:EtOH:Saline 5:5:90 mixture, 1 hour at room temperature, read-out: Solubility Cre:EtOH:Saline
[5] = ethanol, organic solvent or mixture, EtOH, 1 hour at room temperature, read-out: Solubility EtOH
[6] = organic solvent or mixture, 1:1 cremophor EL-P:ethanol mixture, 1 hour at room temperature, read-out: Solubility Cre:EtOH
[7] = organic solvent or mixture, Acetone, 1 hour at room temperature, read-out: Solubility Acetone
[8] = organic solvent or mixture, Cremophor, 1 hour at room temperature, read-out: Solubility Cremophor
[9] = organic solvent or mixture, DCM, 1 hour at room temperature, read-out: Solubility DCM
[10] = organic solvent or mixture, Tween 80, 1 hour at room temperature, read-out: Solubility Tween 80
[11] = organic solvent or mixture, Tween80:EtOH 6:4 mixture, 1 hour at room temperature, read-out: Solubility Twee80:EtOH

T1 sequence (Q16875 whole entry, species assumed): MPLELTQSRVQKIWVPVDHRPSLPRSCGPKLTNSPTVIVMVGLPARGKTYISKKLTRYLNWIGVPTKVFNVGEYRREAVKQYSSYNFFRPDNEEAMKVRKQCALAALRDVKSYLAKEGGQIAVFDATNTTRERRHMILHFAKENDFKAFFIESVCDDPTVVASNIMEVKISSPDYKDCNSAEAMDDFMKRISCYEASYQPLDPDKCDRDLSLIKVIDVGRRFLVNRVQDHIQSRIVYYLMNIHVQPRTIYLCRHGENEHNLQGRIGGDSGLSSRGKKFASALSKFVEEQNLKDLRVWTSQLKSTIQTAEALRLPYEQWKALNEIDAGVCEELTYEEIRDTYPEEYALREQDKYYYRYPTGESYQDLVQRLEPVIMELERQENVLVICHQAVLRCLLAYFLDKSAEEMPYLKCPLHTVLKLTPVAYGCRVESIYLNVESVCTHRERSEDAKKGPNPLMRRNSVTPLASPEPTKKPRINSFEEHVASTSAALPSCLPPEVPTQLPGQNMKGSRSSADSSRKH

SMILES	inhibition at 5 µM (Jurkat cells) [%]	pIC50 (HCT-116)	pIC50 (U937)	pIC50 (MDA-MB-231)	pIC50 (Calu-6)	pIC50 (NCI-H82)	pIC50 (Jurkat)	inhibition at 0.25 µM (PFKFB3) [%]	HLM, Mean metabolized (%) ([1]; 0 min)	HLM, Mean metabolized (%) [1, 3] [%]	solubility at 1 h [2, 4] [µg/mL]	solubility at 1 h [2, 5] [µg/mL]	solubility at 1 h [2, 6] [µg/mL]	solubility at 1 h [2, 7] [µg/mL]	solubility at 1 h [2, 8] [µg/mL]	solubility at 1 h [2, 9] [µg/mL]	solubility at 1 h [2, 10] [µg/mL]	solubility at 1 h [2, 11] [µg/mL]	further results
Nc1ccc(C(=O)c2cc3c(ccc4ccccc43)[nH]2)cc1 [ACT-PFK-112, (4-Amino-phenyl)-(3H-benzo[e]indol-2-yl)-methanone]	47	5.84	6.89	6.69	6.59	6.16	6.20	81.5	0.0	82.7	3700 (≈ 12.9 mM)	7400 (≈ 25.8 mM)	37600 (≈ 131 mM)	8200 (≈ 28.6 mM)	18600 (≈ 65 mM)	14000 (≈ 48.9 mM)	18100 (≈ 63.2 mM)	35600 (≈ 124 mM)	pIC50 (BX-PC-3): 6.87; pIC50 (BT474): 5.86; pIC50 (LnCap): 5.99; pIC50 (H22): 6.29; pIC50 (U87MG): 5.42; pIC50 (MiaPaca): 6.81; pIC50 (SK-BR-3): 5.95; pIC50 (A549): 6.09; pIC50 (CT26): 5.71; pIC50 (SK-N-SH): 6.52
O=C(c1ccncc1)c1cc2c(ccc3ccccc32)[nH]1 [ACT-PFK-095, (3H-Benzo[e]indol-2-yl)-pyridin-4-yl-methanone]	48	5.62	7.30	6.40	6.68	6.30	5.82	26.2	0.0	26	300 (≈ 1.1 mM)	1600 (≈ 5.88 mM)	10000 (≈ 36.7 mM)	5000 (≈ 18.4 mM)	6900 (≈ 25.3 mM)	3400 (≈ 12.5 mM)	7400 (≈ 27.2 mM)	9700 (≈ 35.6 mM)	
